# Assay results as given in patent US12146005B2, “Compositions and methods for treatment of fungal infections” (THE UNIVERSITY OF SOUTHERN CALIFORNIA, priority 2019, dated 2024).
# “Also recorded” adds a separate entry of the source. Like-named read-outs stand apart in the source and are kept apart here. Bridge positions count the residues as written; N and C are the ends.
# Key:
# C. albicans SC5314 [1] = test: In vivo model of disseminated candidiasis in BALB/c mice (survival, body weight, renal fungal burden); conditions: for survival compared to saline controls, P (log-rank analysis): observed 26 days p.i.; for survival compared to saline controls, P (log-rank analysis) / survival efficacy, comparison in words: FIG. 8; for renal fungal burden reduced to a greater extent than fluconazole, P (Fisher's LSD test): peptide 0.1 or 0.25 mg/kg versus fluconazole 5 mg/kg; for survival efficacy relative to MTD1280: candidemia model, survival as metric, 0.1 mg/kg versus MTD1280 0.25 mg/kg, FIGS. 10 to 13; for survival by end point analysis versus fluconazole: χ^2 analysis at day 30 p.i.
# Experimental: Mice were infected i.v. at T=0 with 3×105 blastospores of C. albicans SC5314.
# Mice were infected i.v. at T=0 with 3×10^5 blastospores of C. albicans SC5314. At T=24 h, mice were treated i.p. daily for 7 d w.
# Suitable cyclic tetradecapeptides can be identified by screening against a murine model for disseminated candidiasis. C. albicans SC5314 obtained from American Type Culture Collection can be used as a suitable reference strain. […] Typical antifungal drugs include caspofungin and fluconazole. Cyclic tetradecapeptides to be tested and antifungal drugs can be suspended or dissolved in water or isotonic saline and administered by one or more of intravenous, subcutaneous, intramuscular, and/or intraperitoneal injection.
# In vitro activity of synthetic cyclic tetradecapeptides and antifungal compounds can be determined using conventional culture techniques that are known in the art as described above in relation to RTD-1, and can be used to determine sub-antifungal concentrations. Systemic or disseminated candidiasis can be modeled in vivo by, for example, challenging BALB/c female mice with 0.15 to 2 mL of C. albicans (reference strain or resistant strain) at from about 2×10^5 to about 2×10^7 CFU/mL of the organism. Animals can the be treated with candidate synthetic cyclic tetradecapeptide before challenge with the pathogen, at the time of pathogen challenge, or after challenge with the pathogen. Antifungal drugs and/or candidate synthetic cyclic tetradecapeptide can be administered by intravenous, subcutaneous, intramuscular, and/or intraperitoneal injection in such an in vivo model of systemic or disseminated candidiasis.
# In activity studies the synthetic cyclic tetradecapeptide MTD1280 (SEQ ID NO. 6), which was identified initially as having significant antifungal activity, was used as a model peptide. Briefly, 7-8 week old, immunocompetent, female BALB/c mice were challenged i.v. at T=0 with 3×10^5 CFU of C. albicans SC5314. […] As shown, caspofungin (Caspo) is not effective against this strain of C. albicans.
# Candidate synthetic cyclic tetradecapeptides were pre-screened for tolerance by determining a lack of toxicity when administered at >5 mg/kg.
# C. albicans SC5314 [2] = conditions: strain SC5314, cited from earlier work
# C. albicans strain 43001 = conditions: cited from earlier work
# C. albicans strain 53264 = conditions: cited from earlier work
# C. albicans [3] = test: In vitro antifungal activity, sub-antifungal concentration, C. albicans in general; assay type: cell-based, Candida albicans; conditions: in the presence of serum
# Description: Within the context of this application, a “sub-antifungal concentration” in regard to a fungal pathogen should be understood to be a concentration at which the compound so described has no antifungal effect when applied to the fungal pathogen in vitro (e.g. in a liquid culture medium), e.g. in the absence of host immune effectors.
# Basso et al. (Basso et al., “Rhesus theta defensin 1 promotes long term survival in systemic candidiasis by host directed mechanisms” Nature Scientific Reports (2019) 9: 16905) provides an example of determination of sub-antifungal concentration for the native θ-defensin RTD-1 in regard to different strains of Candida albicans. Cultures of different strains of C. albicans were established in RPMI media or RPMI media containing 50% serum. […] MFC was determined as the lowest concentration that provided 99% killing relative to the input inoculum. MIC was determined as the lowest concentration that inhibited growth.
# Based on such data, for C. albicans a sub-antifungal concentration of RTD-1 in the presence of serum would be less than 100 μg/mL. Such sub-antifungal concentrations can be determined experimentally (for example, by culture from a patient sample) or, preferably, from historical data. […]
# C. albicans [4] = conditions: cited from earlier work
# [5] = tested on: susceptible and multiple drug resistant strains of C. albicans; conditions: cited from earlier work
# [6] = 5 mg/kg i.p. daily for 7 d from 24 h p.i.
# [7] = 5 mg/kg i.p. once a day for 7 days
# [8] = RPMI, lowest concentration giving 99% killing
# [9] = RPMI, lowest concentration that inhibited growth
# [10] = long term survivors 30 days p.i., FIG. 14
molecule,measurement,setting,value
"CC[C@H](C)C[C@H](C)CCCCCCCCC(=O)N[C@H]1C[C@@H](O)[C@@H](NCCN)NC(=O)[C@@H]2[C@@H](O)CCN2C(=O)[C@H]([C@H](O)CCN)NC(=O)[C@H]([C@H](O)[C@@H](O)c2ccc(O)cc2)NC(=O)[C@@H]2C[C@@H](O)CN2C(=O)[C@H]([C@@H](C)O)NC1=O [Caspofungin, caspofungin]","survival compared to saline controls, P (log-rank analysis)",C. albicans SC5314 [1]; [6],3.4×10^−6
same,"survival efficacy, comparison in words",C. albicans SC5314 [1]; [7],not effective
same,MFC,C. albicans SC5314 [2]; [8],>256 µg/mL
same,MIC,C. albicans SC5314 [2]; [9],0.06 µg/mL
same,MFC,C. albicans strain 43001; RPMI,2 µg/mL
same,MIC,C. albicans strain 43001; RPMI,2 µg/mL
same,MFC,C. albicans strain 53264; RPMI,>8 µg/mL
same,MIC,C. albicans strain 53264; RPMI,>8 µg/mL
"OC(Cn1cncn1)(Cn1cncn1)c1ccc(F)cc1F [Fluconazole, fluconazole]","survival compared to saline controls, P (log-rank analysis)",C. albicans SC5314 [1]; [6],3.4×10^−6
same,renal fungal burden in kidney homogenates,"C. albicans SC5314 [1]; long term survivors 30 days p.i., peptide 0.1 or 0.25 mg/kg, fluconazole 5 mg/kg, FIG. 14",reduced fungal burden
same,MIC,C. albicans SC5314 [2]; [9],64 µg/mL
"MTD1280: model synthetic cyclic tetradecapeptide θ-defensin analog, SEQ ID NO. 6, used as reference peptide (GVCICRRRFCLCRR; cyclic; Synthetic cyclic peptide MTD1280)",survival benefit,"C. albicans SC5314 [1]; 0.1 mg/kg i.p. once a day for 7 days, FIG. 9",no survival benefit
same,"survival compared to saline controls, P (log-rank analysis)",C. albicans SC5314 [1]; 0.25 mg/kg i.p. daily for 7 d from 24 h p.i.,2.3×10^−7
same,"survival efficacy, comparison in words",C. albicans SC5314 [1]; 0.25 mg/kg i.p. once a day for 7 days,more effective than 5 mg/kg of RTD-1; also recorded: more effective than 5 mg/kg of fluconazole
same,transient mean reduction in bodyweight,"C. albicans SC5314 [1]; long term surviving treated candidemic mice, plateaued by day 10",15%
same,share of cohort that regained initial body weights,C. albicans SC5314 [1]; long term surviving treated mice; by day 3),90%
same,"renal fungal burden reduced to a greater extent than fluconazole, P (Fisher's LSD test)",C. albicans SC5314 [1]; [10],3×10^−3
"MTD1283: synthetic cyclic tetradecapeptide θ-defensin analog, SEQ ID NO. 4, two disulfide bonds (cyclo(GVCICRRRVCICRR); disulfide (positions not given here))",survival efficacy relative to MTD1280,C. albicans SC5314 [1],equivalent or superior to MTD1280
same,"renal fungal burden reduced to a greater extent than fluconazole, P (Fisher's LSD test)",C. albicans SC5314 [1]; [10],7.4×10^−3
same,survival by end point analysis versus fluconazole,C. albicans SC5314 [1]; fluconazole 5 mg/kg,more effective than fluconazole
"MTD1288: synthetic cyclic tetradecapeptide θ-defensin analog, SEQ ID NO. 5, two disulfide bonds (cyclo(GLCICRRRACLCRR); disulfide (positions not given here))",survival efficacy relative to MTD1280,C. albicans SC5314 [1],equivalent or superior to MTD1280
same,"renal fungal burden reduced to a greater extent than fluconazole, P (Fisher's LSD test)",C. albicans SC5314 [1]; [10],0.02
same,survival by end point analysis versus fluconazole,C. albicans SC5314 [1]; fluconazole 5 mg/kg,more effective than fluconazole
"MTD12810: synthetic cyclic tetradecapeptide θ-defensin analog, SEQ ID NO. 2, two disulfide bonds (Cys3-Cys12, Cys5-Cys10) (cyclo(GVCSCRRRFCLCRR); disulfide 5-10, 3-12)",survival efficacy relative to MTD1280,C. albicans SC5314 [1],equivalent or superior to MTD1280
same,"renal fungal burden reduced to a greater extent than fluconazole, P (Fisher's LSD test)",C. albicans SC5314 [1]; [10],3.5×10^−5
same,survival by end point analysis versus fluconazole,C. albicans SC5314 [1]; fluconazole 5 mg/kg,more effective than fluconazole
"MTD12811: synthetic cyclic tetradecapeptide θ-defensin analog, SEQ ID NO. 3, two disulfide bonds (cyclo(GVCSCRRRFCICRR); disulfide (positions not given here))",survival efficacy relative to MTD1280,C. albicans SC5314 [1],equivalent or superior to MTD1280
"RTD-1: naturally occurring rhesus θ-defensin, cyclic octadecapeptide with three disulfide bonds, SEQ ID NO. 1 (cyclo(GFCRCLCRRGVCRCICTR); disulfide (positions not given here); listed as Macaca mulatta)",sub-antifungal concentration,C. albicans [3],less than 100 μg/mL
same,"survival compared to saline controls, P (log-rank analysis)",C. albicans SC5314 [1]; [6],3.4×10^−6
same,"survival efficacy, comparison in words",C. albicans SC5314 [1]; [7],more effective than 5 mg/kg of fluconazole
same,MFC,C. albicans SC5314 [2]; 50% serum,>100 µg/mL
same,MIC,C. albicans SC5314 [2]; 50% serum,>100 µg/mL
same,MFC,C. albicans SC5314 [2]; [8],25 µg/mL
same,MIC,C. albicans SC5314 [2]; [9],12.5 µg/mL
same,MFC,C. albicans strain 43001; 50% serum,>100 µg/mL
same,MIC,C. albicans strain 43001; 50% serum,>100 µg/mL
same,MFC,C. albicans strain 43001; RPMI,12.5 µg/mL
same,MIC,C. albicans strain 43001; RPMI,6.25 µg/mL
same,MFC,C. albicans strain 53264; 50% serum,>100 µg/mL
same,MIC,C. albicans strain 53264; 50% serum,>100 µg/mL
same,MFC,C. albicans strain 53264; RPMI,12.5 µg/mL
same,MIC,C. albicans strain 53264; RPMI,12.5 µg/mL
same,in vitro antifungal activity in the presence of serum,"C. albicans [4]; in vitro studies, serum",abolished by the presence of serum
same,in vitro concentration required relative to concentrations effective in vivo,C. albicans [4]; in vitro versus murine model,≥ 50 fold
same,long term production of pro-inflammatory cytokines,"[5]; in vivo, treatment with RTD-1",reduction in long term production of pro-inflammatory cytokines
same,efficacy in animal models of systemic candidiasis,[5]; susceptible and multiple drug resistant strains,effective
